According to ChEMBL document CHEMBL3046528, “Pharmacophore-based 3D-QSAR study of fungal chitin synthase inhibitors” (Med Chem Res, 2013):

Target: Chitin synthase (Candida albicans, UniProt P30572+P23316+P30573)
Test: Inhibition of Candida albicans chitin synthase
Assay type: protein assay

| pIC50 | Structure (SMILES) |
| --- | --- |
| 5.015 | CN(CC#CC#CC(C)(C)C)c1cccc2c1CC(O)C(=O)N2 (configuration not stated) |
| 5.769 | CCOP(=O)(OCC)OC1Cc2c(cccc2N(C)CC#CC#CC(C)(C)C)NC1=O (configuration not stated) |
| 3.143 | CN(CC#CC#CC(C)(C)O)c1cccc2c1CCC(=O)N2 |
| 4.422 | CC(C)[C@H](N)C(=O)OC1Cc2c(cccc2N(C)CC#CC#CC(C)(C)C)NC1=O (some centres not stated) |
| 3.839 | CC(C)(C)C#C/C=C/CN(Cc1ccccc1)c1cccc2c1CCC(=O)N2 |
| 6.323 | CN(CC#CC#CC(C)(C)C)c1cccc2c1CCC(=O)N2 |
| 4.681 | CN(Cc1ccc(C#CC(C)(C)C)cc1)c1cccc2c1CCC(=O)N2 |
| 5.506 | CCCCCN(C/C=C/C#CC(C)(C)C)c1cccc2c1CCC(=O)N2 |
| 5.985 | CCCCN(C/C=C/C#CC(C)(C)C)c1cccc2c1CCC(=O)N2 |
| 5.421 | CC(C)N(C/C=C/C#CC(C)(C)C)c1cccc2c1CCC(=O)N2 |
| 4.401 | CN(CC#CC#CC(C)(C)C)c1cccc2c1CC(N)C(=O)N2 (configuration not stated) |
| 5.029 | CN(C/C=C/C#CC(C)(C)C)c1cccc2c1CCC(=O)N2 |
| 5.538 | CCN(C/C=C/C#CC(C)(C)C)c1cccc2c1CCC(=O)N2 |
| 5.679 | CCCN(C/C=C/C#CC(C)(C)C)c1cccc2c1CCC(=O)N2 |
| 4.529 | CCC#CC#CCN(C)c1cccc2c1CCC(=O)N2 |
| 3.6 | CC(C)(C)C#C/C=C/CNc1cccc2c1CCC(=O)N2 |
| 4.523 | CN(CCCC#CC(C)(C)C)c1cccc2c1CCC(=O)N2 |

Target: T1, Chitin synthase 3 (Saccharomyces cerevisiae S288c, UniProt P29465)
T1 sequence (P29465 whole entry): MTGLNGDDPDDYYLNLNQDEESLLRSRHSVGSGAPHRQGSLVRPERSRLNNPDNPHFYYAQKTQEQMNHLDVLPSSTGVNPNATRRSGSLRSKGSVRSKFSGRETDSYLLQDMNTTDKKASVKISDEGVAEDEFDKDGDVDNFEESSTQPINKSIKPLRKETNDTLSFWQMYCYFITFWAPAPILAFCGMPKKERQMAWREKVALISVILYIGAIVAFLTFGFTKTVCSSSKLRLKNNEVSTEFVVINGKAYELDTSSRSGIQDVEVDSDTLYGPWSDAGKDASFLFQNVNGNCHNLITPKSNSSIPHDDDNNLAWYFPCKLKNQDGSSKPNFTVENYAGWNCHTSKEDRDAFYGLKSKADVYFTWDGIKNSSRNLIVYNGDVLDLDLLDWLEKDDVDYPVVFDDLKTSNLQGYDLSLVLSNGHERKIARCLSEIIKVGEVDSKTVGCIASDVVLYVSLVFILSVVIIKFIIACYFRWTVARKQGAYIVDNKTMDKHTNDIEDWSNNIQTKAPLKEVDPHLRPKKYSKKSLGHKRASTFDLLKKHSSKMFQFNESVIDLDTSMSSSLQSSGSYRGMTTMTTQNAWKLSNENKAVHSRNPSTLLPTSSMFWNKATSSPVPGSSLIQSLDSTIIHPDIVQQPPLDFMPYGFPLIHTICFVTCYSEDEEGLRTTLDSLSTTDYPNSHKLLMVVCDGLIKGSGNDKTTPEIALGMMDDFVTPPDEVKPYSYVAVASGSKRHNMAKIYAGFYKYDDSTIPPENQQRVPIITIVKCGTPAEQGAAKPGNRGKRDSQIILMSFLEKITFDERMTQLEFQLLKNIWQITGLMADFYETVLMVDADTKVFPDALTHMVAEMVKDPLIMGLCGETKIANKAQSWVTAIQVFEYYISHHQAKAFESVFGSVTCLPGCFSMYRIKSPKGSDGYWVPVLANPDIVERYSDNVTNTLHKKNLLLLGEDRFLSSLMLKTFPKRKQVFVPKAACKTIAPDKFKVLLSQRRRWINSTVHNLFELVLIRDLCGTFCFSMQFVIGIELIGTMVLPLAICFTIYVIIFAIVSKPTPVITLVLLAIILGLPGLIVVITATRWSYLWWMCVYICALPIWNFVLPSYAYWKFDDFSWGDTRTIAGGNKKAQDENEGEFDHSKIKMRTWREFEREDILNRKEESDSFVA
Test: Inhibition of Saccharomyces cerevisiae chitin synthase

| IC50 [µM] | Structure (SMILES) |
| --- | --- |
| 94.2 | O=C(/C=C/c1ccc2ccccc2c1)c1ccccc1 |
| 372 | COc1ccc(/C=C/C(=O)c2ccccc2)c(OC)c1 |
| 372 | COc1ccc(/C=C/C(=O)c2ccccc2)cc1OC |
| 298 | COc1cccc(/C=C/C(=O)c2ccccc2)c1OC |
| 824 | O=C(/C=C/c1ccco1)c1ccc(Cl)cc1Cl |
